In the supplement of paper PMC11061612:

Tests used:
Assay in all cases: combination Emax (second highest fraction inhibited in the dose matrix, 72 h); higher = more inhibition; extreme values may be limits of the assay
[1] = tested on: HSC-39 (Gastric Carcinoma)
How it was run: (§1)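 Bliss excess equals the observed combination effect minus the expected value EA + EB − EA·EB, where EA and EB are the effects of each agent alone. Combination Emax is the second-highest inhibition within the matrix. Inhibition was scaled from CellTiter-Glo 2.0 luminescence, with 0 set by vehicle wells and 1 by blank wells, after 72 hours of two-drug dosing of cells plated in 1536-well plates.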

SF268 (Low Grade Glioma) = tested on: SF268 (Low Grade Glioma)
How it was run: as §1

[2] = tested on: FADU (Head and Neck Carcinoma)
How it was run: as §1

[3] = tested on: CAL-120 (Breast Carcinoma)
How it was run: as §1

[4] = tested on: PC-3_[JPC-3] (Lung Adenocarcinoma)
How it was run: as §1

[5] = tested on: RCM-1 (Colorectal Carcinoma)
How it was run: as §1

IST-MES1 (Mesothelioma) = tested on: IST-MES1 (Mesothelioma)
How it was run: as §1

[6] = tested on: LK-2 (Squamous Cell Lung Carcinoma)
How it was run: as §1

[7] = tested on: NCI-H2342 (Lung Adenocarcinoma)
How it was run: as §1

[8] = tested on: REH (B-Lymphoblastic Leukemia)
How it was run: as §1

[9] = tested on: VAL (B-Cell Non-Hodgkin's Lymphoma)
How it was run: as §1

[10] = tested on: RERF-GC-1B (Gastric Carcinoma)
How it was run: as §1

[11] = tested on: GP5d (Colorectal Carcinoma)
How it was run: as §1

[12] = tested on: KE-37 (T-Lymphoblastic Leukemia)
How it was run: as §1

[13] = tested on: HEC-1 (Endometrial Carcinoma)
How it was run: as §1

[14] = tested on: MFE-280 (Endometrial Carcinoma)
How it was run: as §1

[15] = tested on: RERF-LC-Sq1 (Squamous Cell Lung Carcinoma)
How it was run: as §1

[16] = tested on: 23132-87 (Gastric Carcinoma)
How it was run: as §1

[17] = tested on: PSN1 (Pancreatic Carcinoma)
How it was run: as §1

[18] = tested on: MKN45 (Gastric Carcinoma)
How it was run: as §1

| Structure (SMILES) | combination Emax [1] | combination Emax (SF268 (Low Grade Glioma)) | combination Emax [2] | combination Emax [3] | combination Emax [4] | combination Emax [5] | combination Emax (IST-MES1 (Mesothelioma)) | combination Emax [6] | combination Emax [7] | combination Emax [8] | combination Emax [9] | combination Emax [10] | combination Emax [11] | combination Emax [12] | combination Emax [13] | combination Emax [14] | combination Emax [15] | combination Emax [16] | combination Emax [17] | combination Emax [18] |
| --- | --- | --- | --- | --- | --- | --- | --- | --- | --- | --- | --- | --- | --- | --- | --- | --- | --- | --- | --- | --- |
| COc1nnc2ccc(N3CCC(c4ccc(OCCN5CCN(C)C(=O)[C@H]5C)cc4)CC3)nn12 [AZD5153] + CC1(C)CCC(CN2CCN(c3ccc(C(=O)NS(=O)(=O)c4ccc(NCC5CCOCC5)c([N+](=O)[O-])c4)c(Oc4cnc5[nH]ccc5c4)c3)CC2)=C(c2ccc(Cl)cc2)C1 [Venetoclax] (first compound max 1 µM, 7x7, partner max 1 µM) | 0.676 | 0.462 | 0.521 | 0.336 | 0.364 | 0.557 | 0.591 | 0.396 | 0.315 | 0.911 | 0.996 | 0.702 | 0.682 | 0.7 | 0.602 | 0.38 | 0.52 | 0.141 | 0.334 | 0.566 |
| CN(C)CCCOc1ccc(-c2ccc3ncc4c(c3c2)n(C2CCOCC2)c(=O)n4C)cn1 [AZD0156] + C=CCn1c(=O)c2cnc(Nc3ccc(N4CCN(C)CC4)cc3)nc2n1-c1cccc(C(C)(C)O)n1 [AZD1775] (first compound max 1 µM, partner max 1 µM) | 0.946 | 0.225 | 0.617 | 0.326 | 0.393 | 0.518 | 0.207 | 0.898 | 0.162 | 0.757 | 0.846 | 0.772 | 0.664 | 1 | 0.0682 | 0.55 | 0.758 | 0.645 | 0.462 | 0.701 |
| CS(=O)(=O)CCNCc1ccc(-c2ccc3ncnc(Nc4ccc(OCc5cccc(F)c5)c(Cl)c4)c3c2)o1 [Lapatinib] + C[C@@H](Oc1cc(-c2cnn(C3CCNCC3)c2)cnc1N)c1c(Cl)ccc(F)c1Cl [Crizotinib] (first compound max 10 µM, 7x7, partner max 10 µM) | 0.981 | 0.902 | 0.931 | 0.734 | 0.922 | 0.865 | 0.686 | 0.888 | 0.43 | 0.964 | 0.808 | 0.951 | 0.979 | 0.975 | 0.182 | 0.88 | 0.949 | 0.594 | 0.806 | 0.913 |
| Cn1cnc2c(F)c(Nc3ccc(Br)cc3Cl)c(C(=O)NOCCO)cc21 [Selumetinib] + C=CCn1c(=O)c2cnc(Nc3ccc(N4CCN(C)CC4)cc3)nc2n1-c1cccc(C(C)(C)O)n1 [AZD1775] (first compound max 10 µM, partner max 1 µM) | 0.82 | 0.473 | 0.521 | 0.326 | 0.452 | 0.637 | 0.189 | 0.931 | 0.353 | 0.62 | 0.732 | 0.788 | 0.888 | 0.947 | 0.157 | 0.212 | 0.666 | 0.275 | 0.736 | 0.8 |
| CC1(C)CCC(CN2CCN(c3ccc(C(=O)NS(=O)(=O)c4ccc(NCC5CCOCC5)c([N+](=O)[O-])c4)c(Oc4cnc5[nH]ccc5c4)c3)CC2)=C(c2ccc(Cl)cc2)C1 [Venetoclax] + C1CN(CCC1(C(=O)N[C@@H](CCO)C2=CC=C(C=C2)Cl)N)C3=NC=NC4=C3C=CN4 [Capivasertib] (first compound max 1 µM, 7x7, partner max 3 µM) | 0.956 | 0.273 | 0.155 | 0.227 | 0.168 | 0.367 | 0.123 | 0.177 | 0.248 | 0.936 | 1 | 0.335 | 0.557 | 0.695 | 0.102 | 0.512 | 0.663 | 0.0322 | 0.218 | 0.581 |
| COc1cc2ncnc(Nc3ccc(F)c(Cl)c3)c2cc1OCCCN1CCOCC1 [Gefitinib] + CC(C)n1c(=O)n(C)c2cnc3cc(F)c(-c4ccc(OCCCN5CCCCC5)nc4)cc3c21 [AZD1390] (first compound max 10 µM, 7x7, partner max 0.3 µM) | 0.217 | 0.155 | 0.471 | 0.14 | 0.67 | 0.41 | 0.17 | 0.2 | 0.0812 | 0.145 | 0.527 | 0.265 | 0.281 | 0.357 | 0.0663 | 0.246 | 0.543 | 0.127 | 0.102 | 0.14 |
| COc1nnc2ccc(N3CCC(c4ccc(OCCN5CCN(C)C(=O)[C@H]5C)cc4)CC3)nn12 [AZD5153] + CCN(CCO)CCCOc1ccc2c(Nc3cc(CC(=O)Nc4cccc(F)c4)[nH]n3)ncnc2c1 [AZD2811] (first compound max 1 µM, 7x7, partner max 1 µM) | 0.952 | 0.609 | 0.533 | 0.441 | 0.425 | 0.612 | 0.653 | 0.625 | 0.433 | 0.903 | 0.727 | 0.685 | 0.728 | 1 | 0.607 | 0.348 | 0.555 | 0.173 | 0.566 | 0.556 |
| CC1(C)CCC(CN2CCN(c3ccc(C(=O)NS(=O)(=O)c4ccc(NCC5CCOCC5)c([N+](=O)[O-])c4)c(Oc4cnc5[nH]ccc5c4)c3)CC2)=C(c2ccc(Cl)cc2)C1 [Venetoclax] + COc1cc(Nc2ncc3c(n2)-c2ccc(Cl)cc2C(c2c(F)cccc2OC)=NC3)ccc1C(=O)O [Alisertib] (first compound max 1 µM, 7x7, partner max 10 µM) | 0.992 | 0.419 | 0.351 | 0.384 | 0.686 | 0.372 | 0.489 | 0.848 | 0.214 | 0.99 | 1 | 0.688 | 0.498 | 0.955 | 0.165 | 0.734 | 0.42 | 0 | 0.526 | 0.563 |
| Cc1cc2ncnn2cc1Nc1ncc2c(n1)n(C1CCOCC1)c(=O)n2C [AZD7648] + O=C(c1cc(Cc2n[nH]c(=O)c3ccccc23)ccc1F)N1CCN(C(=O)C2CC2)CC1 [Olaparib] (first compound max 10 µM, 7x7, partner max 10 µM) | 0.267 | 0.117 | 0.237 | 0.149 | 0.19 | 0.125 | 0.234 | 0.335 | 0.12 | 0.187 | 0.601 | 0.228 | 0.28 | 0.585 | 0.114 | 0.434 | 0.314 | 0.239 | 0.31 | 0.264 |
| COc1cccc(OCCCN)c1-c1cc(Nc2cnc(C#N)cn2)n[nH]1 [Prexasertib] + CCc1c2c(nc3ccc(O)cc13)-c1cc3c(c(=O)n1C2)COC(=O)[C@]3(O)CC [SN-38] (first compound max 1 µM, 7x7, partner max 0.3 µM) | 1 | 0.937 | 0.998 | 0.85 | 0.802 | 0.887 | 0.836 | 0.932 | 0.283 | 1 | 0.961 | 0.994 | 0.949 | 1 | 0.894 | 0.936 | 0.824 | 0.898 | 0.931 | 0.853 |
| CC(=O)c1c(C)c2cnc(Nc3ccc(N4CCNCC4)cn3)nc2n(C2CCCC2)c1=O [Palbociclib] + Cn1cnc2c(F)c(Nc3ccc(Br)cc3Cl)c(C(=O)NOCCO)cc21 [Selumetinib] (first compound max 10 µM, 7x7, partner max 10 µM) | 0.667 | 0.218 | 0.412 | 0.186 | 0.29 | 0.63 | 0.334 | 0.5 | 0.107 | 0.448 | 0.599 | 0.333 | 0.768 | 0.71 | 0.056 | 0.199 | 0.512 | 0.128 | 0.702 | 0.694 |
| C[C@@H]1COCCN1c1cc(C2([S@](C)(=N)=O)CC2)nc(-c2ccnc3[nH]ccc23)n1 [AZD6738] + O=C(c1cc(Cc2n[nH]c(=O)c3ccccc23)ccc1F)N1CCN(C(=O)C2CC2)CC1 [Olaparib] (first compound max 10 µM, 7x7, partner max 10 µM) | 1 | 0.407 | 0.775 | 0.386 | 0.359 | 0.623 | 0.353 | 0.485 | 0.208 | 0.917 | 0.909 | 0.442 | 0.823 | 1 | 0.143 | 0.403 | 0.75 | 0.768 | 0.5 | 0.763 |
| Cc1cc2ncnn2cc1Nc1ncc2c(n1)n(C1CCOCC1)c(=O)n2C [AZD7648] + C[C@@H]1COCCN1C2=NC(=NC(=C2)C3(CC3)[S@](=N)(=O)C)C4=C5C=CNC5=NC=C4 [AZD6738] (first compound max 10 µM, 7x7, partner max 10 µM) | 1 | 0.303 | 0.695 | 0.325 | 0.426 | 0.855 | 0.313 | 0.39 | 0.24 | 0.771 | 0.918 | 0.457 | 0.822 | 1 | 0.423 | 0.337 | 0.804 | 0.841 | 0.418 | 0.793 |
